# Assay results reported in US12225917B2 (priority 2017, dated 2025).
# Read-outs that look alike come from different tables or passages of the source.
# Columns and labels:
# [1] = General safety in broilers reared to market weight by histology (Example 8); assay type: in vivo, broiler chickens
# Excerpt: This study evaluates the safety of IRP001 chloride in broilers through examination of histology.
# The objective of this study was to test the general safety of IRP001 chloride in broilers reared to market weight by examination of histology.
# The experiment consisted of the following treatments (1 pen per treatment, Table 54).
# Birds were kept in a pen having an area of 4×10=40 ft^2, with clean wood shavings as bedding with a thickness of approximately 4 inches. The pen had 5 feet high side walls with a bottom 1 ½ feet being of solid wood to prevent bird migration.
# The temperature of the building was monitored. Environmental conditions during the trial (temperature) were appropriate (optimum) to the age of the animals. Illumination was provided by fluorescent bulbs placed above the pens. The diets were provided ad libitum in one tube-type feeder per pen. From D0 until D7, feed was also supplied on a tray placed on the litter of each pen. Water was provided ad libitum from one Plasson drinker per pen.
# Standard floor pen management practices were used throughout the experiment. Animals and housing facilities were inspected twice daily, observing and recording the general health status, constant feed and water supply as well as temperature, removing all dead birds, and recognizing unexpected events. Birds found dead during the study were noted on the Daily Mortality Record, and were not replaced. Pen number, the date of mortality, sex, weight, and diagnosis were recorded.
# Day of hatch male Cobb chicks were obtained and ten male broiler chicks were placed in each pen. Accountabilities of all test animals and any extra birds were recorded on animal disposition form. The birds were sexed at the hatchery. The breeder flock history and vaccination record at the hatchery were recorded. Bird weights by pen were recorded on D0 and 42.
# All weights were by pen. Treatment Starter feed was fed from D0 to 21. On D21, non-consumed Starter was weighed by pen and discarded. Grower feed was issued and fed until D35. On D35, non-consumed Grower was weighed by pen and discarded. Finisher feed was fed until D42. On D42, non-consumed Finisher was weighed by pen and discarded.
# On the day of study completion (D42), five birds from each pen were humanly euthanized and upper, mid and lower gut sections plus liver lobe were collected and stored in neutral buffered formalin. Theses samples were shipped for analysis.
# [2] = Tissue residue study by LC-MS/MS after in-feed administration (Example 7): muscle and liver; settings: for Mean residue, Breast / Mean residue, Lower leg / Mean residue, Upper leg / Mean residue IRP001, Liver: n = 3
# E. coli causing scour = test: In vitro MIC against pig disease strains incl. scour-inducing E. coli (Example 5); assay type: cell-based; settings: Escherichia coli
# [3] = tested on: Eimeria acervulina, E. maxima, and E. tenella; test: Anticoccidial efficacy/sensitivity cage study (Example 9): lesion scores, oocysts per gram fecal material, coccidiosis mortality; settings: for % Cocci Mort.: Day 0-20, infected
# Clostridium Perfringens [4] = test: microbe, parasite or virus in culture
# Clostridium Difficile = test: In vitro MIC and MBC against Clostridium difficile (Example 6); assay type: cell-based
# Clostridium Perfringens [5] = tested on: Clostridium Perfringens
# [6] = IRP001 0.05 g/kg in feed, pen 2
# [7] = Group 1, 0.03 g/kg IRP001 in feed (0-35 days), 0 days of washout
# [8] = Group 2, 0.03 g/kg IRP001 in feed (0-35 days), 1 day of washout
# [9] = Group 3, 0.03 g/kg IRP001 in feed (0-35 days), 2 days of washout
# [10] = Group 4, 0.03 g/kg IRP001 in feed (0-35 days), 4 days of washout
# [11] = Group 5, 0.03 g/kg IRP001 in feed (0-35 days), 7 days of washout
# [12] = Group 6, 0.03 g/kg IRP001 in feed (0-28 days), 14 days of washout
# [13] = Group 11, 0.3 g/kg IRP001 in feed (0-35 days), 7 days of washout
# [14] = Group 12, 0.3 g/kg IRP001 in feed (0-28 days), 14 days of washout
smiles,measurement,setting,value
"COc1ccc2cc3[n+](cc2c1OC)CCc1cc2c(cc1-3)OCO2 [Berberine, berberine]",adverse reaction or unanticipated event,[1]; 1 g berberine in 1 kg of commercial feed over 42 days,no adverse reaction or unanticipated event has been observed
same,Histology index: Coccidia,[1]; [6],3.2
same,Histology index: Cumulative Pathology,[1]; [6],9.6
same,Histology index: Enteritis,[1]; [6],6.4
same,Histology index: Coccidia,"[1]; IRP001 0.5 g/kg in feed, pen 3",1.6
same,Histology index: Cumulative Pathology,"[1]; IRP001 0.5 g/kg in feed, pen 3",7.6
same,Histology index: Enteritis,"[1]; IRP001 0.5 g/kg in feed, pen 3",6.0
same,Histology index: Coccidia,"[1]; IRP001 1 g/kg in feed, pen 4",1.0
same,Histology index: Cumulative Pathology,"[1]; IRP001 1 g/kg in feed, pen 4",9.2
same,Histology index: Enteritis,"[1]; IRP001 1 g/kg in feed, pen 4",8.2
same,residue level in liver,"[2]; 0.03 g/kg feed, before and after washout",below the limit of detection
same,mean residue level in muscle tissues,"[2]; 0.03 g/kg feed, with or without washout",not detectable
same,"residue level in muscle tissues (breast, lower leg, upper leg)","[2]; 0.3 g/kg feed, after 4 days washout, listed as IRP001",below the LLOD
same,residue level in liver,"[2]; 0.3 g/kg feed, after a 14-day washout",below the limit of quantitation
same,"Mean residue, Breast",[2]; [7],"<LLOD (outputs indicating values lower than 2 ng/g are considered to be within baseline noise, below the LLOD, and as such are not detectable)"
same,"Mean residue, Lower leg",[2]; [7],"<LLOD (outputs indicating values lower than 2 ng/g are considered to be within baseline noise, below the LLOD, and as such are not detectable)"
same,"Mean residue, Upper leg",[2]; [7],"<LLOD (outputs indicating values lower than 2 ng/g are considered to be within baseline noise, below the LLOD, and as such are not detectable)"
same,"Mean residue, Breast",[2]; [8],"<LLOD (outputs indicating values lower than 2 ng/g are considered to be within baseline noise, below the LLOD, and as such are not detectable)"
same,"Mean residue, Lower leg",[2]; [8],"<LLOD (outputs indicating values lower than 2 ng/g are considered to be within baseline noise, below the LLOD, and as such are not detectable)"
same,"Mean residue, Upper leg",[2]; [8],"<LLOD (outputs indicating values lower than 2 ng/g are considered to be within baseline noise, below the LLOD, and as such are not detectable)"
same,"Mean residue, Breast",[2]; [9],"<LLOD (outputs indicating values lower than 2 ng/g are considered to be within baseline noise, below the LLOD, and as such are not detectable)"
same,"Mean residue, Lower leg",[2]; [9],"<LLOD (outputs indicating values lower than 2 ng/g are considered to be within baseline noise, below the LLOD, and as such are not detectable)"
same,"Mean residue, Upper leg",[2]; [9],"<LLOD (outputs indicating values lower than 2 ng/g are considered to be within baseline noise, below the LLOD, and as such are not detectable)"
same,"Mean residue, Breast",[2]; [10],"<LLOD (outputs indicating values lower than 2 ng/g are considered to be within baseline noise, below the LLOD, and as such are not detectable)"
same,"Mean residue, Lower leg",[2]; [10],"<LLOD (outputs indicating values lower than 2 ng/g are considered to be within baseline noise, below the LLOD, and as such are not detectable)"
same,"Mean residue, Upper leg",[2]; [10],"<LLOD (outputs indicating values lower than 2 ng/g are considered to be within baseline noise, below the LLOD, and as such are not detectable)"
same,"Mean residue, Breast",[2]; [11],"<LLOD (outputs indicating values lower than 2 ng/g are considered to be within baseline noise, below the LLOD, and as such are not detectable)"
same,"Mean residue, Lower leg",[2]; [11],"<LLOD (outputs indicating values lower than 2 ng/g are considered to be within baseline noise, below the LLOD, and as such are not detectable)"
same,"Mean residue, Upper leg",[2]; [11],"<LLOD (outputs indicating values lower than 2 ng/g are considered to be within baseline noise, below the LLOD, and as such are not detectable)"
same,"Mean residue, Breast",[2]; [12],"<LLOD (outputs indicating values lower than 2 ng/g are considered to be within baseline noise, below the LLOD, and as such are not detectable)"
same,"Mean residue, Lower leg",[2]; [12],"<LLOD (outputs indicating values lower than 2 ng/g are considered to be within baseline noise, below the LLOD, and as such are not detectable)"
same,"Mean residue, Upper leg",[2]; [12],"<LLOD (outputs indicating values lower than 2 ng/g are considered to be within baseline noise, below the LLOD, and as such are not detectable)"
same,"Mean residue, Breast","[2]; Group 10, 0.3 g/kg IRP001 in feed (0-35 days), 4 days of washout","<LLOD (outputs indicating values lower than 2 ng/g are considered to be within baseline noise, below the LLOD, and as such are not detectable)"
same,"Mean residue, Breast",[2]; [13],"<LLOD (outputs indicating values lower than 2 ng/g are considered to be within baseline noise, below the LLOD, and as such are not detectable)"
same,"Mean residue, Lower leg",[2]; [13],"<LLOD (outputs indicating values lower than 2 ng/g are considered to be within baseline noise, below the LLOD, and as such are not detectable)"
same,"Mean residue, Upper leg",[2]; [13],"<LLOD (outputs indicating values lower than 2 ng/g are considered to be within baseline noise, below the LLOD, and as such are not detectable)"
same,"Mean residue, Breast",[2]; [14],"<LLOD (outputs indicating values lower than 2 ng/g are considered to be within baseline noise, below the LLOD, and as such are not detectable)"
same,"Mean residue, Lower leg",[2]; [14],"<LLOD (outputs indicating values lower than 2 ng/g are considered to be within baseline noise, below the LLOD, and as such are not detectable)"
same,"Mean residue, Upper leg",[2]; [14],"<LLOD (outputs indicating values lower than 2 ng/g are considered to be within baseline noise, below the LLOD, and as such are not detectable)"
same,maximum acceptable residue (lower than one in a million risk of cancer),"[2]; estimated from typical lifetime consumption of chicken meat, breast or leg muscle tissue",13 ng berberine per gram of chicken meat
same,"Mean residue IRP001, Liver","[2]; 0.03 g/kg IRP001 in feed days 0-28, 14 days of washout, euthanasia day 42","<LLOD (outputs indicating values lower than 2 ng/g are considered to be within baseline noise, below the LLOD, and as such are not detectable)"
same,"Mean residue IRP001, Liver","[2]; 0.03 g/kg IRP001 in feed days 0-35, 0 days of washout, euthanasia day 35","<LLOD (outputs indicating values lower than 2 ng/g are considered to be within baseline noise, below the LLOD, and as such are not detectable)"
same,"Mean residue IRP001, Liver","[2]; 0.03 g/kg IRP001 in feed days 0-35, 1 day of washout, euthanasia day 36","<LLOD (outputs indicating values lower than 2 ng/g are considered to be within baseline noise, below the LLOD, and as such are not detectable)"
same,"Mean residue IRP001, Liver","[2]; 0.03 g/kg IRP001 in feed days 0-35, 2 days of washout, euthanasia day 37","<LLOD (outputs indicating values lower than 2 ng/g are considered to be within baseline noise, below the LLOD, and as such are not detectable)"
same,"Mean residue IRP001, Liver","[2]; 0.03 g/kg IRP001 in feed days 0-35, 4 days of washout, euthanasia day 39","<LLOD (outputs indicating values lower than 2 ng/g are considered to be within baseline noise, below the LLOD, and as such are not detectable)"
same,"Mean residue IRP001, Liver","[2]; 0.03 g/kg IRP001 in feed days 0-35, 7 days of washout, euthanasia day 42","<LLOD (outputs indicating values lower than 2 ng/g are considered to be within baseline noise, below the LLOD, and as such are not detectable)"
same,MIC,E. coli causing scour,125 µg/mL
same,% Cocci Mort.,[3]; IRP001 0.03 g/kg,0.0b %
same,% Cocci Mort.,[3]; IRP001 0.10 g/kg,0.0b %
same,Lesion Scores Average,[3]; IRP001 0.03 g/kg,1.8b
same,Lesion Scores E. acer.,[3]; IRP001 0.03 g/kg,2.3b
same,Lesion Scores E. maxima,[3]; IRP001 0.03 g/kg,1.8bc
same,Lesion Scores E. tenella,[3]; IRP001 0.03 g/kg,1.2ab
same,Lesion Scores Average,[3]; IRP001 0.10 g/kg,1.5bc
same,Lesion Scores E. acer.,[3]; IRP001 0.10 g/kg,2.1bc
same,Lesion Scores E. maxima,[3]; IRP001 0.10 g/kg,1.5bcd
same,Lesion Scores E. tenella,[3]; IRP001 0.10 g/kg,0.8bcd
same,MBC,Clostridium Perfringens [4],125 µg/mL
same,MIC,Clostridium Perfringens [4],62.5 to 125 µg/mL
same,inhibition at 125 µg/mL,Clostridium Perfringens [4]; read-out: killing of viable cells,100%
same,MBC,"Clostridium Difficile; Clostridioides difficile, clinical isolate of C. difficile, test agent Berberine sulfate",1000 µg/mL
"CN[C@H](CC(C)C)C(=O)N[C@H]1C(=O)N[C@@H](CC(N)=O)C(=O)N[C@H]2C(=O)N[C@H]3C(=O)N[C@H](C(=O)N[C@H](C(=O)O)c4cc(O)cc(O)c4-c4cc3ccc4O)[C@H](O)c3ccc(c(Cl)c3)Oc3cc2cc(c3O[C@@H]2O[C@H](CO)[C@@H](O)[C@H](O)[C@H]2O[C@H]2C[C@](C)(N)[C@H](O)[C@H](C)O2)Oc2ccc(cc2Cl)[C@H]1O [Vancomycin, reference compound]",MIC,Clostridium Perfringens [5],within the expected range
same,MIC,Clostridium Difficile,within the expected range
